According to patent publication US9738634B2, “Heterocyclic amide compound and herbicide” (SYNGENTA PARTICIPATIONS AG, priority 2013, dated 2017):

Assays:
Type in all cases: in vivo
barnyard grass [1] = assay: Test Example 1: weedkilling efficacy, preemergent weed treatment in the submerged state; A: barnyard grass; settings: treatment dosage 252 g/ha
Method in brief: (§1)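 Pots of alluvial soil flooded 4 cm deep, sown with barnyard grass, bulrush and oval-leafed pondweed and transplanted with 2.5-leaf rice. Emulsified compound applied to the water surface on sowing day at stated g/ha; greenhouse 25–30 °C, effects assessed 3 weeks after treatment.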

bulrush [2] = assay: Test Example 1: weedkilling efficacy, preemergent weed treatment in the submerged state; B: bulrush; settings: treatment dosage 252 g/ha
Method in brief: as §1

oval-leafed pondweed [3] = assay: Test Example 1: weedkilling efficacy, preemergent weed treatment in the submerged state; C: oval-leafed pondweed; settings: treatment dosage 252 g/ha
Method in brief: as §1

transplanted rice = assay: Test Example 1: preemergent weed treatment in the submerged state, effect on crop; a: transplanted rice; settings: treatment dosage 252 g/ha
Method in brief: as §1

barnyard grass [4] = assay: Test Example 2: weedkilling efficacy, growth period weed treatment in the submerged state; A: barnyard grass; settings: treatment dosage 252 g/ha
Method in brief: (§2)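 Barnyard grass, bulrush and oval-leafed pondweed sown in alluvial soil under 4 cm flooding, greenhouse 25 to 30° C. At 1-2 leaf stage, water-diluted emulsion applied to the water surface at stated g/ha dosages; effects scored 3 weeks later.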

bulrush [5] = assay: Test Example 2: weedkilling efficacy, growth period weed treatment in the submerged state; B: bulrush; settings: treatment dosage 252 g/ha
Method in brief: as §2

oval-leafed pondweed [6] = assay: Test Example 2: weedkilling efficacy, growth period weed treatment in the submerged state; C: oval-leafed pondweed; settings: treatment dosage 252 g/ha
Method in brief: as §2

crabgrass [7] = assay: Test Example 3: weedkilling efficacy through soil treatment; D: crabgrass; settings: treatment dosage 315 g/ha
Method in brief: (§3)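 Crop and weed responses were judged three weeks after a uniform surface spray of the water-diluted emulsion at the given g/ha rate. Seeds sat beneath about 1.5 cm of sterilized diluvial soil, and boxes stood in a greenhouse at 25 to 30° C.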

green foxtail [8] = assay: Test Example 3: weedkilling efficacy through soil treatment; E: green foxtail; settings: treatment dosage 315 g/ha
Method in brief: as §3

black-grass [9] = assay: Test Example 3: weedkilling efficacy through soil treatment; H: black-grass; settings: treatment dosage 315 g/ha
Method in brief: as §3

Italian ryegrass [10] = assay: Test Example 3: weedkilling efficacy through soil treatment; I: Italian ryegrass; settings: treatment dosage 315 g/ha
Method in brief: as §3

Indian mallow [11] = assay: Test Example 3: weedkilling efficacy through soil treatment; K: Indian mallow; settings: treatment dosage 315 g/ha
Method in brief: as §3

redroot pigweed [12] = assay: Test Example 3: weedkilling efficacy through soil treatment; L: redroot pigweed; settings: treatment dosage 315 g/ha
Method in brief: as §3

fig-leafed goosefoot [13] = assay: Test Example 3: weedkilling efficacy through soil treatment; M: fig-leafed goosefoot; settings: treatment dosage 315 g/ha
Method in brief: as §3

chickweed [14] = assay: Test Example 3: weedkilling efficacy through soil treatment; N: chickweed; settings: treatment dosage 315 g/ha
Method in brief: as §3

catchweed [15] = assay: Test Example 3: weedkilling efficacy through soil treatment; O: catchweed; settings: treatment dosage 315 g/ha
Method in brief: as §3

birds-eye speedwell [16] = assay: Test Example 3: weedkilling efficacy through soil treatment; p: birds-eye speedwell; settings: treatment dosage 315 g/ha
Method in brief: as §3

directly sown rice [17] = assay: Test Example 3: soil treatment, effect on crop; b: directly sown rice; settings: treatment dosage 315 g/ha
Method in brief: as §3

corn [18] = assay: Test Example 3: soil treatment, effect on crop; c: corn; settings: treatment dosage 315 g/ha
Method in brief: as §3

soybean [19] = assay: Test Example 3: soil treatment, effect on crop; d: soybean; settings: treatment dosage 315 g/ha
Method in brief: as §3

wheat [20] = assay: Test Example 3: soil treatment, effect on crop; e: wheat; settings: treatment dosage 315 g/ha
Method in brief: as §3

beet [21] = assay: Test Example 3: soil treatment, effect on crop; f: beet; settings: treatment dosage 315 g/ha
Method in brief: as §3

crabgrass [22] = assay: Test Example 4: weedkilling efficacy by foliar treatment; D: crabgrass; settings: treatment dosage 315 g/ha
Method in brief: (§4)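 Seeds are spot-sown into sterilized diluvial soil and covered with about 1.5 cm of soil. After 14 days' greenhouse growth at 25 to 30° C, plants are sprayed on stems and leaves with diluted emulsion at the stated g/ha rate, then scored at 3 weeks.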

green foxtail [23] = assay: Test Example 4: weedkilling efficacy by foliar treatment; E: green foxtail; settings: treatment dosage 315 g/ha
Method in brief: as §4

black-grass [24] = assay: Test Example 4: weedkilling efficacy by foliar treatment; H: black-grass; settings: treatment dosage 315 g/ha
Method in brief: as §4

Italian ryegrass [25] = assay: Test Example 4: weedkilling efficacy by foliar treatment; I: Italian ryegrass; settings: treatment dosage 315 g/ha
Method in brief: as §4

Indian mallow [26] = assay: Test Example 4: weedkilling efficacy by foliar treatment; K: Indian mallow; settings: treatment dosage 315 g/ha
Method in brief: as §4

redroot pigweed [27] = assay: Test Example 4: weedkilling efficacy by foliar treatment; L: redroot pigweed; settings: treatment dosage 315 g/ha
Method in brief: as §4

fig-leafed goosefoot [28] = assay: Test Example 4: weedkilling efficacy by foliar treatment; M: fig-leafed goosefoot; settings: treatment dosage 315 g/ha
Method in brief: as §4

chickweed [29] = assay: Test Example 4: weedkilling efficacy by foliar treatment; N: chickweed; settings: treatment dosage 315 g/ha
Method in brief: as §4

catchweed [30] = assay: Test Example 4: weedkilling efficacy by foliar treatment; O: catchweed; settings: treatment dosage 315 g/ha
Method in brief: as §4

birds-eye speedwell [31] = assay: Test Example 4: weedkilling efficacy by foliar treatment; p: birds-eye speedwell; settings: treatment dosage 315 g/ha
Method in brief: as §4

directly sown rice [32] = assay: Test Example 4: foliar treatment, effect on crop; b: directly sown rice; settings: treatment dosage 315 g/ha
Method in brief: as §4

corn [33] = assay: Test Example 4: foliar treatment, effect on crop; c: corn; settings: treatment dosage 315 g/ha
Method in brief: as §4

soybean [34] = assay: Test Example 4: foliar treatment, effect on crop; d: soybean; settings: treatment dosage 315 g/ha
Method in brief: as §4

wheat [35] = assay: Test Example 4: foliar treatment, effect on crop; e: wheat; settings: treatment dosage 315 g/ha
Method in brief: as §4

beet [36] = assay: Test Example 4: foliar treatment, effect on crop; f: beet; settings: treatment dosage 315 g/ha
Method in brief: as §4

| Compound | A (barnyard grass) weedkilling efficacy grade (barnyard grass [1]) | B (bulrush) weedkilling efficacy grade (bulrush [2]) | C (oval-leafed pondweed) weedkilling efficacy grade (oval-leafed pondweed [3]) | a (transplanted rice) effect on crop grade (transplanted rice) | A (barnyard grass) weedkilling efficacy grade (barnyard grass [4]) | B (bulrush) weedkilling efficacy grade (bulrush [5]) | C (oval-leafed pondweed) weedkilling efficacy grade (oval-leafed pondweed [6]) | D (crabgrass) weedkilling efficacy grade (crabgrass [7]) | E (green foxtail) weedkilling efficacy grade (green foxtail [8]) | H (black-grass) weedkilling efficacy grade (black-grass [9]) | I (Italian ryegrass) weedkilling efficacy grade (Italian ryegrass [10]) | K (Indian mallow) weedkilling efficacy grade (Indian mallow [11]) | L (redroot pigweed) weedkilling efficacy grade (redroot pigweed [12]) | M (fig-leafed goosefoot) weedkilling efficacy grade (fig-leafed goosefoot [13]) | N (chickweed) weedkilling efficacy grade (chickweed [14]) | O (catchweed) weedkilling efficacy grade (catchweed [15]) | P (birds-eye speedwell) weedkilling efficacy grade (birds-eye speedwell [16]) | b (directly sown rice) effect on crop grade (directly sown rice [17]) | c (corn) effect on crop grade (corn [18]) | d (soybean) effect on crop grade (soybean [19]) | other results |
| --- | --- | --- | --- | --- | --- | --- | --- | --- | --- | --- | --- | --- | --- | --- | --- | --- | --- | --- | --- | --- | --- |
| CCc1nsc(NC(=O)C(C)(C)N2COC(C)=C(c3ccccc3)C2=O)n1 [B-1-14] | 5 (weed kill ratio 90% or more, (practically complete withering)) | 5 (weed kill ratio 90% or more, (practically complete withering)) | 5 (weed kill ratio 90% or more, (practically complete withering)) | 1 (weed kill ratio 5% or more, less than 20%) | 5 (weed kill ratio 90% or more, (practically complete withering)) | 5 (weed kill ratio 90% or more, (practically complete withering)) | 5 (weed kill ratio 90% or more, (practically complete withering)) | 5 (weed kill ratio 90% or more, (practically complete withering)) | 5 (weed kill ratio 90% or more, (practically complete withering)) | 5 (weed kill ratio 90% or more, (practically complete withering)) | 5 (weed kill ratio 90% or more, (practically complete withering)) | 3 (weed kill ratio 40% or more, less than 70%) | 5 (weed kill ratio 90% or more, (practically complete withering)) | 5 (weed kill ratio 90% or more, (practically complete withering)) | 4 (weed kill ratio 70% or more, less than 90%) | 5 (weed kill ratio 90% or more, (practically complete withering)) | 5 (weed kill ratio 90% or more, (practically complete withering)) | 5 (weed kill ratio 90% or more, (practically complete withering)) | 0 (weed kill ratio 5% or less (practically no effect)) | 3 (weed kill ratio 40% or more, less than 70%) | e (wheat) effect on crop grade (wheat [20]): 5 (weed kill ratio 90% or more, (practically complete withering)); f (beet) effect on crop grade (beet [21]): 5 (weed kill ratio 90% or more, (practically complete withering)); D (crabgrass) weedkilling efficacy grade (crabgrass [22]): 5 (weed kill ratio 90% or more, (practically complete withering)); E (green foxtail) weedkilling efficacy grade (green foxtail [23]): 5 (weed kill ratio 90% or more, (practically complete withering)); H (black-grass) weedkilling efficacy grade (black-grass [24]): 5 (weed kill ratio 90% or more, (practically complete withering)); I (Italian ryegrass) weedkilling efficacy grade (Italian ryegrass [25]): 5 (weed kill ratio 90% or more, (practically complete withering)); K (Indian mallow) weedkilling efficacy grade (Indian mallow [26]): 5 (weed kill ratio 90% or more, (practically complete withering)); L (redroot pigweed) weedkilling efficacy grade (redroot pigweed [27]): 5 (weed kill ratio 90% or more, (practically complete withering)); M (fig-leafed goosefoot) weedkilling efficacy grade (fig-leafed goosefoot [28]): 4 (weed kill ratio 70% or more, less than 90%); N (chickweed) weedkilling efficacy grade (chickweed [29]): 4 (weed kill ratio 70% or more, less than 90%); O (catchweed) weedkilling efficacy grade (catchweed [30]): 4 (weed kill ratio 70% or more, less than 90%); P (birds-eye speedwell) weedkilling efficacy grade (birds-eye speedwell [31]): 4 (weed kill ratio 70% or more, less than 90%); b (directly sown rice) effect on crop grade (directly sown rice [32]): 4 (weed kill ratio 70% or more, less than 90%); c (corn) effect on crop grade (corn [33]): 3 (weed kill ratio 40% or more, less than 70%); d (soybean) effect on crop grade (soybean [34]): 4 (weed kill ratio 70% or more, less than 90%); e (wheat) effect on crop grade (wheat [35]): 4 (weed kill ratio 70% or more, less than 90%); f (beet) effect on crop grade (beet [36]): 5 (weed kill ratio 90% or more, (practically complete withering)) |
| CSc1nsc(NC(=O)C(C)(C)N2COC(C)=C(c3ccccc3)C2=O)n1 [B-1-16] | 5 (weed kill ratio 90% or more, (practically complete withering)) | 5 (weed kill ratio 90% or more, (practically complete withering)) | 5 (weed kill ratio 90% or more, (practically complete withering)) | 2 (weed kill ratio 20% or more, less than 40%) | 5 (weed kill ratio 90% or more, (practically complete withering)) | 5 (weed kill ratio 90% or more, (practically complete withering)) | 5 (weed kill ratio 90% or more, (practically complete withering)) | 5 (weed kill ratio 90% or more, (practically complete withering)) | 5 (weed kill ratio 90% or more, (practically complete withering)) | 5 (weed kill ratio 90% or more, (practically complete withering)) | 4 (weed kill ratio 70% or more, less than 90%) | 0 (weed kill ratio 5% or less (practically no effect)) | 4 (weed kill ratio 70% or more, less than 90%) | 4 (weed kill ratio 70% or more, less than 90%) | 3 (weed kill ratio 40% or more, less than 70%) | 5 (weed kill ratio 90% or more, (practically complete withering)) | 4 (weed kill ratio 70% or more, less than 90%) | 3 (weed kill ratio 40% or more, less than 70%) | 0 (weed kill ratio 5% or less (practically no effect)) | 0 (weed kill ratio 5% or less (practically no effect)) | e (wheat) effect on crop grade (wheat [20]): 5 (weed kill ratio 90% or more, (practically complete withering)); f (beet) effect on crop grade (beet [21]): 0 (weed kill ratio 5% or less (practically no effect)); D (crabgrass) weedkilling efficacy grade (crabgrass [22]): 5 (weed kill ratio 90% or more, (practically complete withering)); E (green foxtail) weedkilling efficacy grade (green foxtail [23]): 5 (weed kill ratio 90% or more, (practically complete withering)); H (black-grass) weedkilling efficacy grade (black-grass [24]): 5 (weed kill ratio 90% or more, (practically complete withering)); I (Italian ryegrass) weedkilling efficacy grade (Italian ryegrass [25]): 3 (weed kill ratio 40% or more, less than 70%); K (Indian mallow) weedkilling efficacy grade (Indian mallow [26]): 5 (weed kill ratio 90% or more, (practically complete withering)); L (redroot pigweed) weedkilling efficacy grade (redroot pigweed [27]): 4 (weed kill ratio 70% or more, less than 90%); M (fig-leafed goosefoot) weedkilling efficacy grade (fig-leafed goosefoot [28]): 3 (weed kill ratio 40% or more, less than 70%); N (chickweed) weedkilling efficacy grade (chickweed [29]): 0 (weed kill ratio 5% or less (practically no effect)); O (catchweed) weedkilling efficacy grade (catchweed [30]): 4 (weed kill ratio 70% or more, less than 90%); P (birds-eye speedwell) weedkilling efficacy grade (birds-eye speedwell [31]): 0 (weed kill ratio 5% or less (practically no effect)); b (directly sown rice) effect on crop grade (directly sown rice [32]): 4 (weed kill ratio 70% or more, less than 90%); c (corn) effect on crop grade (corn [33]): 2 (weed kill ratio 20% or more, less than 40%); d (soybean) effect on crop grade (soybean [34]): 3 (weed kill ratio 40% or more, less than 70%); e (wheat) effect on crop grade (wheat [35]): 1 (weed kill ratio 5% or more, less than 20%); f (beet) effect on crop grade (beet [36]): 1 (weed kill ratio 5% or more, less than 20%) |
